Tests used:
[1] = system: murine Panc-02 pancreatic cancer cells; assay: Injection of BSA-conjugated sphingolipids into mice with subcutaneous Panc-02 tumors; assay type: in vivo
Excerpt: (A) Splenic IMCs (Gr-1+CD11b+, also defined as MDSC: myeloid-derived suppressor cells) were isolated from subcutaneous human MDA-MB-231 breast tumor-bearing athymic nude mice, treated with or without dhS1P (to induce the expansion of CD19+CD45R B220+ cells: B-cells), and adoptively transferred into subcutaneous human MDA-MB-231 breast tumor-bearing athymic nude mice before monitoring tumor growth. ANOVA, **p<0.05 compared to PBS control, n≧6. (B) Splenic IMCs were isolated from orthotopic human BxPC-3 pancreatic tumor-bearing athymic nude mice, treated with or without dhS1P, and adoptively transferred into orthotopic human BxPC-3 pancreatic tumor-bearing athymic nude mice before monitoring survival. Logrank test, *p<0.05, n=5. (C) Tumor growth following BSA (lipid carrier control), sphingosine-1-phosphate (S1P), or dhS1P injection every other day, was monitored in C57BL/6J mice engrafted with subcutaneous murine Panc-02 pancreatic cancer cells. ANOVA, **p<0.05 compared to BSA control, n≧6.
Orthotopic pancreatic cancer and subcutaneous breast cancer tumors were established in athymic nude, NOD.CB17-Prkdcscid/J, BALB/cJ, or C57BL/6J mice as previously described (8, 9), with minor modifications. All cell lines used in animal and cellular studies, prior to any modification, were originally obtained from the American Type Culture Collection (Manassas, Va.). For orthotopic BxPC-3-GFP human pancreatic cancer xenografts, 4-6 week old female athymic mice were fully anesthetized with a mixture of ketamine-HCl (129 mg/kg) and xylazine (4 mg/kg) injected intramuscularly. A small incision was made in the left flank, the peritoneum was dissected and the pancreas exposed. Using a 27-gauge needle, 2.5×10^6 cells, prepared in 0.1 mL of Hank's balanced salt solution, were injected into the pancreas. For experimental lung-metastatic osteosarcoma xenografts, 4-6 week old female athymic nude mice were tail vein-injected with 2.5×10^6 human SAOS-2-LM7 cells. […] Tumor size was measured by caliper measurement. […]

[2] = system: isolated IMCs (GEMM colonies, multipotent myeloid progenitor cells); assay: CFU-GEMM colony forming assay of isolated IMCs; assay type: cell-based, athymic nude mice; conditions: 5 μM, GEMM-supportive semi-solid media, 3 weeks of culture
Method: (A) Splenic IMCs (Gr-1+CD11b+, also defined as MDSCs: myeloid-derived suppressor cells) were isolated from MDA-MB-231 tumor-bearing athymic nude mice and exposed to BSA, S1P (5 μM), or dhS1P (5 μM). Following 24-hour culture incubation, cells were labeled with specific antibodies and analyzed by multicolor flow cytometry (red: IMCs; blue: possible B-cells). (B) Splenic IMCs were isolated from MDA-MB-231 tumor-bearing athymic nude mice and cultured (5×10^4 cells/mL) in GEMM-supportive semi-solid media with BSA, S1P (5 μM), or dhS1P (5 μM). GEMM colonies (multipotent myeloid progenitor cells) were visualized and counted after 3 weeks of culture. ANOVA, *p<0.01 compared to no treatment or BSA-treatment, ***p<0.001 compared to S1P-treatment, n≧3. (C) Splenic hematopoietic progenitors (Lineage-Sca-1+CD117+) were isolated from MDA-MB-231 tumor-bearing athymic nude mice and exposed to BSA, S1P (5 μM), or dhS1P (5 μM). Following 24-hour culture incubation, cells were labeled with specific antibodies and analyzed by multicolor flow cytometry. […]
Isolated IMCs from the spleens of tumor-bearing athymic nude mice were cultured (5×10^4 cells/mL) in GEMM-supportive complete (mouse) methylcellulose media (R&D Systems, Minneapolis, Minn.), according to the manufacturer's instructions, with BSA, S1P (5 μM), or dhS1P (5 μM). GEMM colonies were visualized and counted after 3 weeks of culture.

Structure (SMILES): CCCCCCCCCCCCCCC[C@@H](O)[C@@H](N)COP(=O)(O)O [dhS1P, dihydrosphingosine-1-phosphate]
- Life expectancy ([1]; direct injections into pancreatic tumor-bearing mice): improved
- Tumor growth ([1]; subcutaneous Panc-02 in C57BL/6J mice, injection every other day, 0.1 mL of 100 μM, BSA carrier): therapeutic effect
- CFU-GEMM colony formation [2]: completely abrogated
